Results on seven compounds are retold here after ChEMBL document CHEMBL1153957, “Novel small molecule activators of beta-catenin-mediated signaling pathway: structure-activity relationships of indirubins” (Bioorg Med Chem Lett, 2009).

Holding throughout (type): cell-based
Common to all, as to settings: Homo sapiens

Assay [1] is described as follows: Activation of Wnt signaling pathway in HEK293 cells assessed as decrease in phosphorylation at […]/37/Thr41 of […] at 250 nM after 24 hrs by Western blot analysis.
A short description of assay [2]: Activation of Wnt signaling pathway in HEK293 cells assessed as increase in phosphorylation at Ser9 of GSK3-beta at 250 nM after 24 hrs by Western blot analysis.
The nature of assay [3]: Activation of Wnt signaling pathway in HEK293 cells assessed as increase in beta-catenin-mediated Tcf/Lef transcriptional activity at 250 nM after 24 hrs by dual luciferase reporter gene assay relative to control.
Assay [4] in a line: Activation of Wnt signaling pathway in HEK293 cells assessed as decrease in phosphorylation at Tyr216 of GSK3-beta at 250 nM after 24 hrs by Western blot analysis. In general terms: A western blot detects proteins with antibodies after separation by electrophoresis.
Assay [5] can be described thus: Activation of Wnt signaling pathway in HEK293 cells assessed as increase in beta-catenin-mediated Tcf/Lef transcriptional activity after 24 hrs by dual luciferase reporter gene.

Activity calls are given as the source filed them. The calls are words filed in the database; no cut-off is given here.

`O=Nc1c(-c2c(O)[nH]c3ccc([N+](=O)[O-])cc23)[nH]c2ccccc12`: the result in assay [1], in assay [2] and in assay [4] was Active. For the same compound, in assay [3], the fold change (FC) was determined as 4.2. As for `O=C1Nc2cc(Br)ccc2/C1=C1/Nc2ccccc2/C1=N\O`, in assay [5], the Activity result is “Dose-dependent effect”. The fold change (FC) in assay [3] is 2.7. With `O=C1Nc2ccc([N+](=O)[O-])cc2/C1=C1/Nc2ccc(Br)cc2/C1=N/O`, the fold change (FC) in assay [3] came out at 1.66. The same measure, in the same setting: the value for `O=C1Nc2ccc(Cl)cc2/C1=C1/Nc2ccccc2/C1=N\O` was 3.46. Turning to `CC(C)(C)C(=O)Nc1ccc2c(c1)/C(=C1/Nc3ccccc3/C1=N\O)C(=O)N2`, the fold change (FC) in assay [3] turned out to be 1.51. Same read-out and setting: the result for `CC(=O)Nc1ccc2c(c1)/C(=C1/Nc3ccccc3/C1=N\O)C(=O)N2` reads 1.89; that for `O=C1Nc2ccccc2/C1=C1/Nc2ccccc2C1=O`, 2.04.
